Data published in US20150064220A1, “METHODS FOR MODULATING CELL-MEDIATED IMMUNITY USING HUMAN MILK OLIGOSACCHARIDES” (ABBOTT LABORATORIES, priority 2012, published 2015).

How the values were obtained:
[1] = test system: Peripheral blood mononuclear cells (PBMCs); test: PBMC proliferation by tritiated thymidine incorporation, with or without the T-cell mitogen PHA; format: cell-based, piglets; settings: 72 hours; for unstimulated peripheral blood mononuclear cell proliferation: HMO or HMO mixture 125 μg/mL alone (no PHA), FIG. 2; for PHA-stimulated peripheral blood mononuclear cell proliferation: HMO or HMO mixture 125 μg/mL with 25 μg/mL PHA, compared to cultures containing no HMO, FIG. 1
Procedure: T-cell mediated responses were assessed by proliferative responses to the T-cell mitogen phytohemagglutinin (PHA) (simulates infection). […] Peripheral blood mononuclear cells (PBMCs) were isolated using standard density gradient (Ficoll-Paque PLUS) techniques. Residual red blood cells were lysed with a hypotonic ammonium chloride solution. Cells were washed and resuspended in RPMI (Roswell Park Memorial Institute medium) media containing: 10% fetal bovine serum, 2 mM Glutamine, 1 mM sodium pyruvate, 20 mM HEPES (4-(2-hydroxyethyl)-1-piperazineethanesulfonic acid), 50 μg/mL gentamicin, 1000 IU/mL penicillin and 100 μg/mL streptomycin, at a concentration of 1×10^6/mL, and then cultured in the presence or absence of the individual HMOs or HMO mixtures at a concentration of 125 μg/mL, alone or in combination with 25 μg/mL PHA. Cells were cultured for 72 hours, and cellular proliferation was determined using standard tritiated thymidine incorporation methodology.

[2] = test system: T regulatory cells (FoxP3+, CD4+, CD25+) in mesenteric lymph nodes; test: T-regulatory cells in mesenteric lymph nodes of orally supplemented mice, by flow cytometry; format: in vivo; settings: oral 7.5 mg daily for 5 days versus PBS, day six, FIG. 3
Procedure: Mice were orally supplemented with 7.5 mg of 2′FL in 200 μL of PBS (n=5) or 200 μL of PBS (n=5) daily for 5 days. On day six, mice were sacrificed and lymphocytes from mesenteric lymph nodes were removed and isolated using standard methods. Mesenteric lymph node lymphocytes (MLNLs) were stained with fluorochrome labeled monoclonal antibodies specific for CD4 and CD25 surface markers. Cells were then fixed with a paraformaldehyde solution to maintain surface marker staining integrity. Stained MLNLs were permeabilized with a saponin-based solution to allow for intracellular uptake of monoclonal antibodies and then stained with a fluorochrome labeled monoclonal antibody specific for the transcription factor FoxP3. All cell preparation methods used were based on recommendations of the monoclonal antibody manufacturer. MLNL suspensions were analyzed by flow cytometery. FoxP3^+, CD4^+, and CD25^+ cells are classified T regulatory cells.

[3] = test system: gastrointestinal epithelial cells; settings: Kuntz et al (2008); cited from earlier work

Compound | unstimulated peripheral blood mononuclear cell proliferation [1] | PHA-stimulated peripheral blood mononuclear cell proliferation [1] | other results
2′-fucosyllactose [2′FL] | decreased unstimulated peripheral blood mononuclear cell proliferation | – | percentage of T-regulatory cells in mesenteric lymph nodes [2]: generation of T regulatory cells
3-fucosyllactose [3′FL] | decreased unstimulated peripheral blood mononuclear cell proliferation | – | –
CC(=O)N[C@H]1[C@H](O[C@H]2[C@@H](O)[C@@H](CO)O[C@@H](O[C@H]3[C@H](O)[C@@H](O)C(O)O[C@@H]3CO)[C@@H]2O)O[C@H](CO)[C@@H](O[C@@H]2O[C@H](CO)[C@H](O)[C@H](O)[C@H]2O)[C@@H]1O (mixture of isomers) [LNnT, Lacto-N-neotetraose] | this was not seen | did not significantly enhance proliferation | –
Fucosyllactose [FL] | – | did not significantly enhance proliferation | –
sialyllactose [SL] | – | – | differentiation of gastrointestinal epithelial cells [3]: increases differentiation; proliferation of gastrointestinal epithelial cells [3]: decreases proliferation
